Test results reported in patent publication US8999383B2, “Compositions of GnRH related compounds and processes of preparation” (Merrion Research III Limited, priority 2008, dated 2015).
Non-standard residues stand in square brackets, D forms with d. Residues, ends and D or L forms follow the SMILES beside them. dPhe(4-NH2) = Nc1ccc(C[C@@H](N)C(=O)O)cc1; dPhe(4-Cl) = N[C@H](Cc1ccc(Cl)cc1)C(=O)O; Phe(4-NH2) = Nc1ccc(C[C@H](N)C(=O)O)cc1; d2Nal = N[C@H](Cc1ccc2ccccc2c1)C(=O)O; Lys(iPr) = CC(C)NCCCC[C@H](N)C(=O)O; d3Pal = N[C@H](Cc1cccnc1)C(=O)O

Experiment: Gelation of acyline in pH 6.8 buffer with sodium caprate and Tween 80 (filtration, reverse phase HPLC)
Type: physicochemical
Method: Different concentrations of acyline composition are prepared by adding acyline to pH 6.8 buffer solution either at room temperature or 37° C. All acyline solutions contain 0.6 mg/mL sodium caprate (sodium caprate is referred as C10 in the figures). All samples are centrifuged and filtered prior to analysis. Samples are analyzed by reverse phase HPLC with UV detection. 10 mg acyline is transferred into […] volumetric flask. A pH 6.8 buffer solution is preheated to 37° C. Then, 100 mL pre-heated buffer solution and 0.6 mg/mL sodium caprate is added to the flask to prepare a 0.1 mg/mL acyline sample. In a similar manner, Tween 80 is added to prepare a 0.1 mg/mL acyline solution with 1% Tween 80. Samples are shaken in a temperature controlled water bath at 37° C. 5 mL samples are taken at 1, 5, 10, 15, 20, 30 and 120 minutes after mixing acyline with the buffer solution. Samples are filtered immediately through 0.45 μm filters and the first 3 mL is discarded. Filtered samples are analyzed, undiluted, by reverse phase HPLC with UV detection. All samples are prepared in duplicate and the concentration was obtained for the analysis from the mean of the duplicates. The result of comparison of 1% and 0% Tween 80 at 0.1 mg/mL acyline sample is graphically recorded in FIG. 5. […] A similar experimental procedure as Example 4 is used to prepare acyline sample for example 5. The result of comparison of 5 mg/mL, 1 mg/mL, 0.1 mg/mL and 1% Tween in phosphate buffer containing 0.6 mg/mL of sodium caprate and 0.1 mg/mL acyline is graphically recorded in FIG. 6. […] A similar experimental procedure as Example 4 is used to prepare acyline sample for example 6. The result of comparison of 1% and 1 mg/mL Tween 80 in 0.1 and 0.01 mg/mL acyline sample is graphically recorded in FIG. 7. […] A similar experimental procedure as Example 4 is used to prepare acyline sample for example 7. The result of comparison of 0.01 mg/mL acyline samples having 0.1%, 0.5% and 1% Tween 80 is graphically recorded in FIG. 8.

## CC(=O)Nc1ccc(C[C@H](NC(=O)[C@H](CO)NC(=O)[C@@H](Cc2cccnc2)NC(=O)[C@@H](Cc2ccc(Cl)cc2)NC(=O)[C@@H](Cc2ccc3ccccc3c2)NC(C)=O)C(=O)N[C@H](Cc2ccc(NC(C)=O)cc2)C(=O)N[C@@H](CC(C)C)C(=O)N[C@@H](CCCCNC(C)C)C(=O)N2CCC[C@H]2C(=O)N[C@H](C)C(N)=O)cc1 [acyline, Ac-D2Nal-D4Cpa-D3Pal-Ser4Aph(Ac)-D4Aph(Ac)-Leu-ILys-Pro-DAla-NH2] (Ac-[d2Nal][dPhe(4-Cl)][d3Pal]S[Phe(4-NH2)](Ac)[dPhe(4-NH2)](Ac)L[Lys(iPr)]P[dA]-NH2)
0.01 mg/mL acyline sample, 1% Tween 80 (versus 0.1% and 0.5%)
  gelation of acyline: significantly reduces the gelation
0.1 mg/mL acyline, pH 6.8 buffer, 37° C., 0.6 mg/mL sodium caprate alone (below CMC), 0% Tween 80
  gelation of acyline: insufficient to reduce the gelation
0.1 mg/mL and 0.01 mg/mL acyline sample, 1% Tween 80
  gelation of acyline: reduces gelation
